Laboratory results: ChEMBL document CHEMBL1201862, “PubChem BioAssay data set” (2004)
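Method: 48-hour compound exposure of cells in 96-well plates, five concentrations, linear interpolation of endpoints. The concentration for 50% growth inhibition is given as GI50.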 Calls of active or inactive are those of the source. Rule as the data show it: active = GI50 up to about 1.1 µM and inactive = higher.

What was measured:
Assay in all cases: growth of human tumour cells (NCI), 48 h
[1] = system: 786-0
[2] = system: A549
[3] = system: DU-145
[4] = system: EKVX
[5] = system: HOP-62
[6] = system: Hs-578T
[7] = system: IGROV-1
[8] = system: KM12
[9] = system: LOX IMVI
[10] = system: M14
[11] = system: MDA-N
[12] = system: OVCAR-3
[13] = system: OVCAR-4
[14] = system: PC-3
[15] = system: SF-268
[16] = system: SF-295
[17] = system: SN12C
[18] = system: SR
[19] = system: T47D

Row | SMILES | GI50 [1] | GI50 [2] | GI50 [3] | GI50 [4] | GI50 [5] | GI50 [6] | GI50 [7] | GI50 [8] | GI50 [9] | GI50 [10] | GI50 [11] | GI50 [12] | GI50 [13] | GI50 [14] | GI50 [15] | GI50 [16] | GI50 [17] | GI50 [18] | GI50 [19]
1 | O=[As](O)(O)c1ccc2nc3cc([As](=O)(O)O)ccc3nc2c1 | > 100 µM (inactive) | > 100 µM (inactive) | > 100 µM (inactive) | > 100 µM (inactive) | > 100 µM (inactive) | > 100 µM (inactive) | > 100 µM (inactive) | > 100 µM (inactive) | > 100 µM (inactive) | > 100 µM (inactive) | > 100 µM (inactive) | > 100 µM (inactive) | > 100 µM (inactive) | > 100 µM (inactive) | > 100 µM (inactive) | > 100 µM (inactive) | > 100 µM (inactive) | > 100 µM (inactive) | > 100 µM (inactive)
2 | CCOC(=O)c1cc2cc([N+](=O)[O-])ccc2oc1=O | > 100 µM (inactive) | > 100 µM (inactive) | > 100 µM (inactive) | > 100 µM (inactive) | > 100 µM (inactive) | > 100 µM (inactive) | > 100 µM (inactive) | > 100 µM (inactive) | > 100 µM (inactive) | > 100 µM (inactive) | > 100 µM (inactive) | > 100 µM (inactive) | > 100 µM (inactive) | > 100 µM (inactive) | 39.3 µM (inactive) | > 100 µM (inactive) | > 100 µM (inactive) | > 100 µM (inactive) | > 100 µM (inactive)
3 | CC(C)Cn1cnc2c(Cl)nc3ccccc3c21 | 80.2 µM (inactive) | 59.4 µM (inactive) | 73.8 µM (inactive) | 16.6 µM (inactive) | > 100 µM (inactive) | 27.7 µM (inactive) | 31.9 µM (inactive) | 37.8 µM (inactive) | 35.5 µM (inactive) | > 100 µM (inactive) | 68.2 µM (inactive) | 41.3 µM (inactive) | 48.3 µM (inactive) | 34.4 µM (inactive) | 57.3 µM (inactive) | 72.6 µM (inactive) | 70.6 µM (inactive) | 25.6 µM (inactive) | 77.1 µM (inactive)
4 | NC(=O)c1nnc2cc(F)ccc2c1N | > 100 µM (inactive) | > 100 µM (inactive) | > 100 µM (inactive) | 85.7 µM (inactive) | > 100 µM (inactive) | > 100 µM (inactive) | > 100 µM (inactive) | > 100 µM (inactive) | 78.3 µM (inactive) | > 100 µM (inactive) | > 100 µM (inactive) | > 100 µM (inactive) | > 100 µM (inactive) | > 100 µM (inactive) | > 100 µM (inactive) | > 100 µM (inactive) | > 100 µM (inactive) | > 100 µM (inactive) | > 100 µM (inactive)
5 | CC(C)Oc1c(N(Cc2ccccc2)c2ccccc2C2SCCCS2)c(=O)c1=O | 4.41 µM (inactive) | 5.36 µM (inactive) | 4.18 µM (inactive) | 4.51 µM (inactive) | 3.96 µM (inactive) | 3.44 µM (inactive) | 3.32 µM (inactive) | 3.21 µM (inactive) | 5.56 µM (inactive) | 3.65 µM (inactive) | 3.1 µM (inactive) | 2.33 µM (inactive) | 9.04 µM (inactive) | 3.29 µM (inactive) | 5.96 µM (inactive) | 2.2 µM (inactive) | 6.17 µM (inactive) | 2.79 µM (inactive) | 5.14 µM (inactive)
6 | C=C1CC(O)C2C(=C)C(=O)OC2C2C(C)C(=O)CC12 (stereo not given) | > 10 µM (inactive) | 20.3 µM (inactive) | 15.3 µM (inactive) | 15.4 µM (inactive) | 19.8 µM (inactive) | 19.1 µM (inactive) | 18.4 µM (inactive) | 24.7 µM (inactive) | 20 µM (inactive) | 11.8 µM (inactive) | 6.87 µM (inactive) | 11.6 µM (inactive) | 17.6 µM (inactive) | 36.6 µM (inactive) | 22.2 µM (inactive) | 27.6 µM (inactive) | 15.5 µM (inactive) | 9.14 µM (inactive) | 16.9 µM (inactive)
7 | Cc1c(C#N)c2nnn(-c3cccc(Cl)c3)c(=O)n2c1-c1ccccc1 | 2.99 µM (inactive) | 4.5 µM (inactive) | 3.46 µM (inactive) | 5.69 µM (inactive) | 0.891 µM (active) | 6.64 µM (inactive) | 2.54 µM (inactive) | 0.895 µM (active) | 7.5 µM (inactive) | 4.17 µM (inactive) | 0.428 µM (active) | 1.65 µM (inactive) | 8.61 µM (inactive) | 0.875 µM (active) | 6.81 µM (inactive) | 1.45 µM (inactive) | 3.83 µM (inactive) | 0.301 µM (active) | 4.25 µM (inactive)
8 | Nc1ncnc2c1ncc(=O)n2C1CC(O)C(CO)O1 (stereo not given) | > 100 µM (inactive) | > 100 µM (inactive) | > 100 µM (inactive) | > 100 µM (inactive) | > 100 µM (inactive) | > 100 µM (inactive) | > 100 µM (inactive) | > 100 µM (inactive) | > 100 µM (inactive) | > 100 µM (inactive) | > 100 µM (inactive) | > 100 µM (inactive) | > 100 µM (inactive) | > 100 µM (inactive) | > 100 µM (inactive) | 65.6 µM (inactive) | > 100 µM (inactive) | > 100 µM (inactive) | > 100 µM (inactive)
9 | C=CC[C@@]1(C)CCCCCCCCC[C@@](C)(CC=C)C1=O | 31.3 µM (inactive) | 40 µM (inactive) | 50.2 µM (inactive) | 38.4 µM (inactive) | 38.4 µM (inactive) | 18.9 µM (inactive) | 31 µM (inactive) | 30.1 µM (inactive) | 18.1 µM (inactive) | 28.6 µM (inactive) | 50.8 µM (inactive) | 19 µM (inactive) | > 100 µM (inactive) | 37.1 µM (inactive) | 36.4 µM (inactive) | 21.1 µM (inactive) | 29.2 µM (inactive) | 27.5 µM (inactive) | 21.2 µM (inactive)
10 | O=C1Nc2ccc(Br)cc2/C1=N/c1ccc2c(c1)OCO2 | 21.6 µM (inactive) | 46.8 µM (inactive) | 34 µM (inactive) | 25.8 µM (inactive) | 20.2 µM (inactive) | 30.5 µM (inactive) | 27.4 µM (inactive) | 17.6 µM (inactive) | 23.1 µM (inactive) | 20.5 µM (inactive) | 15.7 µM (inactive) | 22.1 µM (inactive) | 3.72 µM (inactive) | 16.3 µM (inactive) | 35.2 µM (inactive) | 24.8 µM (inactive) | 19 µM (inactive) | 15.1 µM (inactive) | 35.9 µM (inactive)
11 | ClC(Cl)(Cl)C1=N[C@H]2[C@H](Br)[C@@H]3O[C@@H](c4ccccc4)[C@H](c4ccccc4)O[C@@H]3[C@H]2O1 | 21.4 µM (inactive) | 21.5 µM (inactive) | 26.5 µM (inactive) | 26.2 µM (inactive) | 18.6 µM (inactive) | 23.8 µM (inactive) | 15.3 µM (inactive) | 20.1 µM (inactive) | 17.1 µM (inactive) | 23.8 µM (inactive) | 20.3 µM (inactive) | 16.6 µM (inactive) | 18.7 µM (inactive) | 16 µM (inactive) | 18.4 µM (inactive) | 17.1 µM (inactive) | 20.1 µM (inactive) | 21.1 µM (inactive) | 30.2 µM (inactive)
12 | CCCCCC/C=C\CCCCCCCCCC1=C(CN2CCN(C)CC2)C(=O)C=C(OC)C1=O | 1.67 µM (inactive) | 3.83 µM (inactive) | 13.4 µM (inactive) | 13.6 µM (inactive) | 15.6 µM (inactive) | 6.03 µM (inactive) | 5.93 µM (inactive) | 6.47 µM (inactive) | 3.8 µM (inactive) | 2.51 µM (inactive) | 8.05 µM (inactive) | 6.76 µM (inactive) | 1.76 µM (inactive) | 2.37 µM (inactive) | 5.61 µM (inactive) | 6.3 µM (inactive) | 4.37 µM (inactive) | 0.0578 µM (active) | 2.28 µM (inactive)
13 | O/N=C\c1c2c(cc3c1CCC3)CCC2 | > 100 µM (inactive) | > 100 µM (inactive) | > 100 µM (inactive) | > 100 µM (inactive) | > 100 µM (inactive) | > 100 µM (inactive) | > 100 µM (inactive) | > 100 µM (inactive) | > 100 µM (inactive) | > 100 µM (inactive) | > 100 µM (inactive) | > 100 µM (inactive) | > 100 µM (inactive) | > 100 µM (inactive) | > 100 µM (inactive) | > 100 µM (inactive) | > 100 µM (inactive) | > 100 µM (inactive) | 49.5 µM (inactive)
14 | N#C[BH2-][n+]1ccc(C(=O)NNCC(F)(F)F)cc1 | > 100 µM (inactive) | > 100 µM (inactive) | > 100 µM (inactive) | > 100 µM (inactive) | > 100 µM (inactive) | > 100 µM (inactive) | > 100 µM (inactive) | > 100 µM (inactive) | > 100 µM (inactive) | > 100 µM (inactive) | > 100 µM (inactive) | > 100 µM (inactive) | > 100 µM (inactive) | > 100 µM (inactive) | > 100 µM (inactive) | > 100 µM (inactive) | > 100 µM (inactive) | > 100 µM (inactive) | > 100 µM (inactive)
15 | OC1(c2ccc(Cl)cc2)c2ccccc2C2=NCc3ccccc3CN21 (stereo not given) | 5.45 µM (inactive) | 4.58 µM (inactive) | 17.9 µM (inactive) | 5.48 µM (inactive) | 6.47 µM (inactive) | 14.9 µM (inactive) | 3.75 µM (inactive) | 4.7 µM (inactive) | 9.2 µM (inactive) | 2.96 µM (inactive) | 12.9 µM (inactive) | 1.7 µM (inactive) | 12.6 µM (inactive) | 4.74 µM (inactive) | 12.4 µM (inactive) | 15.3 µM (inactive) | 17.5 µM (inactive) | 8.53 µM (inactive) | 23.3 µM (inactive)
